Assay results from patent publication US20230089073A1 (Carmot Therapeutics, Inc., priority 2021, published 2023).

Each compound was assayed against T1, human GLP-1 receptor (Homo sapiens, UniProt P43220) (assay: GLP-1R cAMP Assay). Settings: cAMP accumulation in CHO cells stably overexpressing the human GLP-1 receptor; 30 min treatment; HitHunter cAMP kit; read-out: EC50.
T1 construct: expressed in transfected cells
Type: cell-based
Method: cAMP accumulation was measured in Chinese hamster ovary (CHO) cells stably overexpressing the human GLP-1 receptor using the HitHunter cAMP Assay for Small Molecules Kit (Eurofins). Briefly, cells were grown in Ham's F12 Nutrient Mix with 10% FBS, and lifted with Cell Dissociation Buffer, Enzyme free, PBS based (ThermoFisher). […] The anti-cAMP antibody reagent was then added to cells at a 1:2 ratio and 5 μL of mixture was seeded in 384-well small volume white assay plates, at 10,000 cells/well. Cells were then treated with 50 nL compound using an ECHO 550 acoustic dispenser (Labcyte) in a 20-point dose response format in triplicate for 30 min. Cells were then lysed, and detection reagents added according to the manufacturer's protocol. After overnight incubation, luminescence was measured using a Perkin Elmer Envision plate reader. Dose response curves were analyzed using GraphPad Prism 9.0.

T1 sequence (P43220 24-463): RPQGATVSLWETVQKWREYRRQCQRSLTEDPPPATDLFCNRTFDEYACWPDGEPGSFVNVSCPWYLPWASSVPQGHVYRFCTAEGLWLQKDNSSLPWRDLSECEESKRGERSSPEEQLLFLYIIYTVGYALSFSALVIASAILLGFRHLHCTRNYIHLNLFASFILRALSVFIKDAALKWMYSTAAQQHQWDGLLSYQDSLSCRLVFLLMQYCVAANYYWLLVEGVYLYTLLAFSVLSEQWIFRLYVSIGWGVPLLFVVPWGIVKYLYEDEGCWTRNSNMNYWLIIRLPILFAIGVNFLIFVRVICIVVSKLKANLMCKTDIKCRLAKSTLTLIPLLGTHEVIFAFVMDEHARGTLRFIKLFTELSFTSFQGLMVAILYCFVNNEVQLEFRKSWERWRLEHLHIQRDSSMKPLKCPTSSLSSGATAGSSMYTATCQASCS

EC50 [nM]	Compound
50 to 500	Cc1ccc(N(C)c2cc(C(=O)N3CCN(Cc4nc5ccc(C(=O)O)cc5n4C[C@@H]4CCO4)CC3)ccc2F)c(Cl)c1 [Example 95, (S)-2-((4-(3-((2-Chloro-4-methylphenyl)(methyl)amino)-4-fluorobenzoyl)piperazin-1-yl)methyl)-1-(oxetan-2-ylmethyl)-1H-benzo[d]imidazole-6-carboxylic acid]
< 50	CCn1cncc1Cn1c(CN2CCC(Cc3cnc(COc4ccc(Cl)cc4C)o3)CC2)nc2ccc(C(=O)O)cc21 [Compound 141, 2-{[4-({2-[(4-chloro-2-methylphenoxy)methyl]-1,3-oxazol-5-yl}methyl)piperidin-1-yl]methyl}-1-[(1-ethyl-1H-imidazol-5-yl)methyl]-1H-1,3-benzodiazole-6-carboxylic acid]
< 50	N#Cc1ccc(OCc2nc(OC3CCN(Cc4nc5ccc(C(=O)O)cc5n4C[C@@H]4CCO4)CC3)ccc2F)c(F)c1 [Compound 347]
< 50	O=C(O)c1ccc2nc(CN3CCC(Oc4ccnc(COc5ccc(Cl)cc5CF)c4)CC3)n(C[C@@H]3CCO3)c2c1 [Example 299, (S)-2-((4-((2-((4-Chloro-2-(fluoromethyl)phenoxy)methyl)pyridin-4-yl)oxy)piperidin-1-yl)methyl)-1-(oxetan-2-ylmethyl)-1H-benzo[d]imidazole-6-carboxylic acid]
< 50	C[C@H]1C[C@@H](Oc2ccnc(COc3ccc(C4CC4)cc3C#N)n2)CCN1Cc1nc2c(F)cc(C(=O)O)cc2n1C[C@@H]1CCO1 [Compound 509, 2-(((2S,4S)-4-((2-((2-cyano-4-cyclopropylphenoxy)methyl)pyrimidin-4-yl)oxy)-2-methylpiperidin-1-yl)methyl)-4-fluoro-1-(((S)-oxetan-2-yl)methyl)-1H-benzo[d]imidazole-6-carboxylic acid]
> 500	O=C(O)c1ccc2nc(CN3CCN(C(=O)c4ccc(COc5cccc(Cl)c5)o4)CC3)n(C[C@@H]3CCO3)c2c1 [Compound 40, 2-[(4-{5-[(3-chlorophenoxy)methyl]furan-2-carbonyl}piperazin-1-yl)methyl]-1-{[(2S)-oxetan-2-yl]methyl}-1H-1,3-benzodiazole-6-carboxylic acid]
> 500	N#Cc1cc(Cl)ccc1OCc1cccc(OC2CCN(Cc3nc4ccc(C(=O)O)cc4n3Cc3ncco3)CC2)n1 [Compound 251, 2-{[4-({6-[(4-chloro-cyanophenoxy)methyl]pyridin-2-yl}oxy)piperidin-1-yl]methyl}-1-[(1,3-oxazol-2-yl)methyl]-1H-1,3-benzodiazole-6-carboxylic acid]
< 50	N#Cc1cc(F)c(F)cc1OCc1nccc(OC2CCN(Cc3nc4c(F)cc(C(=O)O)cc4n3C[C@@H]3CCO3)CC2)n1 [Compound 505, 2-{[4-({2-[(2-cyano-4,5-difluorophenoxy)methyl]pyrimidin-4-yl}oxy)piperidin-1-yl]methyl}-4-fluoro-1-{[(2S)-oxetan-2-yl]methyl}-1H-1,3-benzodiazole-6-carboxylic acid]
< 50	C[C@H]1C[C@@H](Oc2ccnc(COc3ccc(F)cc3F)c2)CCN1Cc1nc2ccc(C(=O)O)cc2n1C[C@@H]1CCO1 [Compound 497, 2-{[(2S,4S)-4-({2-[(2,4-difluorophenoxy)methyl]pyridin-4-yl}oxy)-2-methylpiperidin-1-yl]methyl}-1-{[(2S)-oxetan-2-yl]methyl}-1H-1,3-benzodiazole-6-carboxylic acid]
< 50	Cc1cc(C(=O)O)cc2c1nc(CN1CCC(Oc3ccnc(COc4ccc(C#N)cc4F)n3)CC1)n2C[C@@H]1CCO1 [Compound 484, 2-{[4-({2-[(4-cyano-2-fluorophenoxy)methyl]pyrimidin-4-yl}oxy)piperidin-1-yl]methyl}-4-methyl-1-{[(2S)-oxetan-2-yl]methyl}-1H-1,3-benzodiazole-6-carboxylic acid]
